# Laboratory results as given in the pKa sets of Baltruschat and Czodrowski (2020).
# Details: acidic group
row,SMILES,pKa
1,Oc1ccc[nH+]c1,5.01
2,CCCCC1(CC)C(=O)NC(=S)NC1=O,7.37
3,Cc1cc(Cc2cc(O)ccc2C)c([O-])c([N+](=O)[O-])c1,10.4
4,O=S(O)c1ccccc1,1.72
5,Cc1ccc(C(=O)NO)cc1,8.9
6,Nc1cccc2c(O)cccc12,10.3
7,COC(=O)c1ccccc1-n1nc(O)cc1C,12.3
8,O=C(O)C(c1ccc(-c2ccccc2)cc1)C1(O)CCCC1 (stereo unspecified),3.65
9,N#CC(C#N)=NNc1ccc(CCCl)cc1,6.5
10,CCC/C=C(/C)C(=O)O,4.44
11,O=CNOC(=O)/C=C/c1ccccc1,5.9
12,CCOC(=O)N1CCc2noc(O)c2CC1,4.7
13,C[C@@H]1C[C@@H]1C(=O)O,5.03
14,Oc1ccc(Cl)cc1CN1CCOCC1,9.85
15,O=CCC=O,4.57
16,Cc1nnc(S)n1N,7.97
17,CC[NH+]1CCC[C@@H]1CNC(=O)c1c(O)c(Br)cc(Br)c1OC,5.88
18,C[NH2+]CC(=O)O,2.24
19,N#CCc1ccc(C(=O)O)cc1,4.09
20,O=c1[nH]c(=S)[nH]c2nc[nH]c12,5.88
21,Nc1ccc(S(=O)(=O)Nc2ncccc2O)cc1,7.6
22,CCSC(C)C(=O)O (stereo unspecified),3.8

row,SMILES,pKa
1,Brc1cccc(-c2nnn[nH]2)c1,3.82
2,O=[N+]([O-])c1ccc(O)cc1,7.13
3,CC1(C)NC(=O)NC1=O,9.19
4,C/C(O)=C/C(N)=O,9.46
5,C[N+]1(CCC(=O)O)CCCCC1,3.43
6,O/N=C/c1cccnc1,10.3
7,O=C1CSC(=S)N1,6.48
8,O=C1CS(=O)(=O)NC(=O)N1,2.7
9,Cc1nc2c(n1C)C(=O)c1[nH]c(=O)[nH]c(=O)c1C2=O,5.82
10,[NH3+]c1ccccc1O[C@H]1O[C@@H](C(=O)O)[C@H](O)[C@@H](O)[C@@H]1O,3.3
11,CC(C)CCOc1ccccc1/C=C/C(=O)O,4.85
12,Cc1cc(C)c(O)cc1C,10.6
13,Cc1cc(C(CC(=O)O)c2ccccc2)ccc1O (stereo unspecified),4.67
14,Cc1ccc(C[n+]2ccc(C(=O)Cc3ccccc3)cc2)cc1,8.91
15,CC(=O)C(Cc1ccc(C#N)cc1)C(C)=O,9.69
16,CCOC(=O)c1c[nH+]c2cc([N+](=O)[O-])ccc2c1O,4.1
17,Cn1c(=O)c2c([nH]c(=O)n2C)n(C)c1=O,6
18,COC(=O)[C@H]1[C@@H]2Cc3c4[nH]c5ccccc5c4cc[n+]3C[C@H]2CC[C@H]1O,10.7
19,Nc1[nH]cc(O)[nH+]1,4.8
20,CS(=O)(=O)c1ccc(O)cc1,7.83
21,CC(O)(C(=O)O)c1ccccc1 (stereo unspecified),3.53
22,Cc1ccc(O)c(Cc2cc(C)cc([N+](=O)[O-])c2[O-])c1,11.7

row,SMILES,pKa
1,O=C(O)c1ccc([N+](=O)[O-])cc1,3.43
2,C[n+]1cc(O)cc2ccccc21,5.42
3,C=C(/C=C(/C)O)C(C)(C)C,11
4,CC(=O)c1cc[nH]n1,11.8
5,Nc1ncnc2[nH]cnc12,9.86
6,c1ncc2cn[nH]c2n1,9.54
7,Oc1cccc2ncccc12,8.54
8,CN(C)c1ncc2[nH]cnc2n1,10.2
9,CC(=O)c1ccc(Cl)cc1,18.1
10,CCCOC(=S)NC(C)=O,9.34
11,O=C(O)CCc1ccsc1,4.45
12,O=P(O)(O)C([NH2+]Cc1cc[nH+]cc1)c1ccccc1O (stereo unspecified),2.28
13,Cc1ccc(C)c(C(=O)C(=O)O)c1,1.45
14,O=C(O)c1cccc(=O)cc1,3.2
15,Oc1cc(-c2ccccc2)n[nH]1,11.4
16,C[n+]1cccc(S)c1,2.27
17,CC[NH+](CC)Cc1c(O)c(Cl)cc(Cl)c1Cl,5.13
18,Cc1nnnn1CC(=O)O,2.16
19,O=[N+]([O-])c1[nH]cnc1Cl,5.9
20,CC(C)c1nnn[nH]1,5.55
21,CC(C)(C)c1cc(/C=C/Cl)cc(C(C)(C)C)c1O,11.8
22,O=C(O)C(c1ccc(-c2ccccc2)cc1)C1(O)CCCCC1 (stereo unspecified),3.59

row,SMILES,pKa
1,CC1=NS(=O)(=O)c2cc(Cl)ccc2N1,8.62
2,O=C(O)CC(O)c1ccccc1 (stereo unspecified),4.4
3,CCC[NH2+]CCS,7.92
4,Cc1coc(C)c1C(=O)O,4.55
5,Nc1nccc2c1[nH+]cn2CCOCP(=O)(O)O,1.23
6,O=C1NC(=O)c2cc(Cl)ccc21,9.48
7,O=C([O-])/C=C\C(=O)NOCc1ccccc1,10
8,O=C(O)[C@@H]1C[C@@H]1Cl,4.12
9,OC(c1ccncc1)(c1ccncc1)c1cccnc1,11.9
10,O/N=C/c1ccccc1,10.8
11,N#Cc1c[nH+]c2ccccc2c1O,-2.08
12,CCc1ccc(C(=O)/C=C/C(=O)O)cc1,3.38
13,COc1cccc(OC)c1-c1nc2cnccc2[nH]1,10.9
14,O=C([O-])CCS,10.3
15,Cn1n[n+](C)nc1N,2.5
16,Oc1ccc(O)c2ccccc12,9.25
17,CC(=O)c1ccccc1C(=O)O,4.15
18,C[N+](C)(C)CCc1ccc(O)cc1,9.8
19,CC(C)(C)[NH2+]CC(=O)c1ccc(O)cc1,7.9
20,c1cc[n+]2c(c1)C[n+]1ccccc1C2,8.12

# Same assay, conditions: basic group
row,SMILES,pKa
1,Nc1nccnn1,4
2,Nc1nsc2ccccc12,2.45
3,CCCN(C)C,9.62
4,COC(=O)c1ccc2ccccc2n1,1.75
5,CN1[C@@H]2CC[C@H]1C[C@H](OC(=O)C(O)c1ccccc1)C2 (stereo partly specified),9.61
6,CC(C)NCCCCCC[NH2+]C(C)C,10.9
7,C1CCc2nnc3c(c2CC1)CCCC3,6.03
8,[NH3+]/N=C/c1ncnc2nc[nH]c12,2.8
9,Nc1cccc2c(O)cccc12,4.15
10,N#CC(C#N)=NNc1ccc(CCCl)cc1,-0.81
11,C[Si](C)(C)c1cccc(N)c1,4.64
12,C[NH2+]CCN,7.49
13,Oc1ccc(Cl)cc1CN1CCOCC1,6.78
14,COCCNc1ccc(Cl)cc1,3.3
15,CN1C[C@H](C(=O)[O-])C[C@@H]2c3cccc4[nH]cc(c34)C[C@@H]21,8.57
16,CCCCCCCCCCCCCNCCCCCCCCCCCCC,11
17,CN(C)c1ccc(/N=N/c2ccncc2)cc1,5.8
18,Cc1cc(C)n(C)c(=O)n1,4
19,NNC(=O)[C@@H](N)Cc1ccccc1,7.06
20,C[n+]1cnccc1[O-],1.84
21,CN(C)CC[Se-],10.8
22,CC(=O)OC1CN2CCC1CC2 (stereo unspecified),9.27
23,COc1nc(N)c2ncn([C@H]3O[C@@H](CO)[C@H](O)[C@@H]3O)c2n1,3.2
24,O/N=C/c1cccnc1,3.94

row,SMILES,pKa
1,Cc1ccc(NCC[NH2+]c2ccc(C)cc2)cc1,2.7
2,C[NH+]1CCC[C@H]1c1cccnc1,3.16
3,Cn1cc/c(=N\N)c2ccccc21,10.6
4,CCCCCCCCCCCCN(CC(O)CC)CC(O)CC (stereo unspecified),5.6
5,OCCc1cccnc1,5.38
6,CC1CN(C)CCN1C (stereo unspecified),8.36
7,C/C=C1/CN2[C@@H]3C[C@H]1C1[C@@H](O)[C@]4(C[C@@H]12)c1ccccc1N(C)[C@@H]34 (stereo partly specified),8.5
8,c1c[nH]c(P(c2ncc[nH]2)c2[nH]cc[nH+]2)n1,6.59
9,N=C(Nc1ccccc1)Nc1nc(N)nc(N)n1,8.2
10,C[Si](C)(CCN)O[Si](C)(C)CCN,10.7
11,CN,10.8
12,CC(C)C(C(C)C)N(C)C,10.1
13,Cn1ccnc1-c1nccn1C,4.91
14,C[n+]1c([S-])nc([O-])c2ccccc21,9.23
15,[O-]c1cccc(Cl)n1,7.76
16,CCC(O)CN(CC(O)CC)C(C)(C)C (stereo unspecified),9.6
17,NCC(=O)Nc1ccc([N+](=O)[O-])cc1,8.5
18,C#CCCCCCN,10.6
19,[O-]c1ccc(F)cc1CN1CCCCC1,11.3
20,Nc1ccc2c(c1)Cc1cccc(O)c1-2,4.73
21,c1ccc(N=C(Nc2ccccc2)Nc2ccccc2)cc1,9.1
22,CN(C)/C=N/c1ccc(Br)cc1,8.1
23,c1ccc(C2CN3CCC2CC3)cc1 (stereo unspecified),10.2
24,CCN(N)CC,7.63

row,SMILES,pKa
1,CSC(C)=N,6.71
2,OCCc1ccncc1,5.68
3,COc1ccc2c(c1)C(O)N(C)C=C2 (stereo unspecified),2.15
4,CNC(C)=S,-1.9
5,CC(CC(c1ccccc1)c1ccccc1)N1CCCCC1 (stereo unspecified),8.8
6,Nc1ncnc2[nH]cnc12,4.26
7,C=CCN(CC=C)CCOC(=O)C(=C)C,7.02
8,O=Cc1ccnc2ccccc12,4.25
9,c1ncc2cn[nH]c2n1,2.84
10,Nc1ccc([I+]c2ccccc2)cc1,1.66
11,CCCCCCCCN(CC(C)O)CC(C)O (stereo unspecified),8.3
12,Oc1cccc2ncccc12,5.2
13,CN(C)c1ncc2[nH]cnc2n1,4.02
14,[O-]c1ccccc1CN1CCCCC1,11
15,Cn1nccc1N,4.23
16,CCn1ccnc1C,8.09
17,COc1ccc(N(C)C)cc1,5.86
18,Cc1ccc(C(O)CN)cc1 (stereo unspecified),9.06
19,NCCCCCC(=O)[O-],10.8
20,O=C([O-])[C@@H]1O[C@H](Oc2ccc3cccnc3c2)[C@@H](O)[C@H](O)[C@H]1O,5.32
21,Cc1c[nH+]c(C)cn1,-4.42
22,CN(C)c1ccc2cc3ccc([NH+](C)C)cc3[nH+]c2c1,-3.15
23,O=[N+]([O-])c1[nH]cnc1Cl,-1.3
24,NCc1ccccc1,9.36

row,SMILES,pKa
1,C1CCN(CC[NH+]2CCCCC2)CC1,6.12
2,CCC(C)NCC(C)C (stereo unspecified),10.8
3,COc1cc(N)c(C#N)c(N)n1,4.17
4,[O-]c1c(Cl)cc(Cl)cc1CN1CCCCC1,11.1
5,CCCCCCCCCCCCCCCCCN,10.6
6,Nc1nccc2c1[nH+]cn2CCOCP(=O)(O)O,0.15
7,CCCCCCCCCCN(CCO)CC(C)O (stereo unspecified),7.5
8,C[C@H]1C[NH2+][C@@H](C)CN1,5.23
9,Cc1cc(N)nc2ccc3ccccc3c12,7.14
10,C=CC(C)Nc1ccccc1 (stereo unspecified),4.57
11,C[C@H]1C[C@@]23[C@@H]4CCCN2CCC[C@H]3[C@@H](O)C[C@H]4C1=O,9.13
12,COc1cccc(OC)c1-c1nc2cnccc2[nH]1,6.34
13,CC(C)(N)C(=O)O,10.2
14,CC1(C)CC(=O)C(C)(C)N1,7.1
15,[NH3+]C(Cc1cnc[nH]1)C(=O)NCC(=O)[O-] (stereo unspecified),6.67
16,CN=C1CCCCC1,9.43
17,Cn1cnc2cncnc21,2.42
18,NCc1ccncc1,8.3
19,Nc1ccc(Br)cc1Br,2.3
20,COc1ncnc2c1cnn2C,2.51
21,[S-]c1ccnc([S-])[nH+]1,6.46
22,NCCC(=O)[O-],10.2
23,Cc1cc([N+](=O)[O-])ccc1N,1.97
